The values that follow come from patent publication US10104891B2 (priority 2014, dated 2018).

What all share (assay type): in vivo
Assay [1] deals with Pseudoperonospora cubensis. Nature of the assay: Test 2: control effect against cucumber downy mildew. The following applies: Pseudoperonospora cubensis, 120 h, control value vs untreated section. A digest of the protocol: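 Protective test: zoospores (1.0×10^4 units/ml) misted one day after applying a 4 ppm suspension (wettable powder diluted in 1/5000 Tween20) to 2-leaf cucumber, Sagami hanjiro. After 16 hr at 22° C humid incubation, leaf lesion area read at day 5, expressed as control value versus untreated leaves.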

The subject of a further assay is Pythium graminicola. Nature of the assay: Test 4: control effect against rice damping-off by the Pythium fungus (soil lavage). Particulars: 1,000 ppm, 2.5 ml test suspension drenched on contaminated soil, rice (koshihikari). How it is done: A 10% wettable powder created according to the Pharmaceutical Formulation Example 1 was diluted with a Tween20 solution prepared to a concentration of 1/5000, then the compound of formula [1] was prepared to a concentration of 4 ppm. Further, the compound of formula [1] in Test 4 was adjusted to a concentration of 1,000 ppm.
<Test 4 Test of Control Effect Against Rice Damping-Off by the Pythium Fungus (Soil Lavage)>
Distilled water was added to the flora of Pythium graminicola cultured in bentoglass seed culture and stirred with a mixer, and adjusted the contaminated soil to 5 g of bacteria against 1 kg of soil.
In a cell tray having 31×31 mm^2 per cell, 20 ml of the contaminated soil was filled in each cell, and 3 seeds of rice chaff that has been forced to sprout (Species: koshihikari) were seeded, and 5 ml of soil was added for covering, then 2.5 ml of test suspension was drenched, and the seeds were incubated in a moist chamber adjusted to 28° C. for 72 hr to induce sprouting. Then, in a low temperature room of 5° C., the onset of disease was induced for 2 days, then the disease was nurtured for 14 days in a room of 25° C.
The soil was washed, and the apoptosis strain, growth restrained strain, and a healthy strain were measured and the onset rate was calculated by the following formula. Onset rate=[Σ(onset strain number by level×onset index)/(investigated strain×3)]×100 [Onset Index]
1: Growth restrained strain
Also, the following formula was used to compute the control value from the obtained onset index. control value={1−onset area rate at the section applied the test agent/onset area rate of untreated section}×100 Computational formula of the control value: […]

The subject of another assay is Plasmopara viticola. In words: Test 3: control effect against grape downy mildew. The following applies: Plasmopara viticola, 120 h, control value vs untreated section. The method in brief:
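Leaf lesion area, scored 5 days after inoculation and compared with untreated plants, gives the control value. Inoculation used P. viticola zoospores (1.0×10^4 units/ml) with a 16 hr moist incubation at 22° C. It followed by one day a spray of 4 ppm compound (wettable powder in Tween20) onto Neomuscat seedlings.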

For the next assay, the system named is Phytophthora infestans. Nature of the assay: whole plant or invertebrate. The following applies: Phytophthora infestans, in Solanum lycopersicum, 96 h, read-out: control value (Test 1).

As to `Cc1cc(C(F)(F)F)nn1CC(=O)N1CCC(c2nc(C3OCc4cccc(C=NO)c4CO3)cs2)CC1` (centres unmarked) [Compound 1-96, 4-[4-[6-(hydroxyimino)methyl-1,5-dihydro-3H-2,4-benzodioxepin-3-yl]-2-thiazolyl]-1-[2-[5-methyl-3-(trifluoromethyl)-1H-pyrazole-1-yl]acetyl]piperidine], the pest or weed control at 4 µg/mL (in assay [1]; with Plasmopara viticola; with Phytophthora infestans) was 100% each time. This molecule also registered a pest or weed control at 1000 ppm in the assay with Pythium graminicola of at least 90%.
Take `Cc1cc(C(F)(F)F)nn1CC(=O)N1CCC(c2nc(C3OCc4cccc(C(F)F)c4CO3)cs2)CC1` (centres unmarked) [Compound 1-97, 4-[4-[6-(difluoromethyl)-1,5-dihydro-3H-2,4-benzodioxepin-3-yl]-2-thiazolyl]-1-[2-[5-methyl-3-(trifluoromethyl)-1H-pyrazole-1-yl]acetyl]piperidine]: the pest or weed control at 4 µg/mL (in assay [1]; with Plasmopara viticola; in the assay with Phytophthora infestans) was 100% throughout. The same molecule yielded a pest or weed control at 1000 ppm with Pythium graminicola of at least 90%.
For `Cc1cc(C(F)(F)F)nn1CC(=O)N1CCC(c2nc(C3OCc4c(Br)ccc(Br)c4CO3)cs2)CC1` [Compound 1-100, 4-[4-(6,9-dibromo-1,5-dihydro-3H-2,4-benzodioxepin-3-yl)-2-thiazolyl]-1-[2-[5-methyl-3-(trifluoromethyl)-1H-pyrazole-1-yl]acetyl]piperidine], the pest or weed control at 4 µg/mL (in assay [1]; in the assay with Plasmopara viticola; in the assay with Phytophthora infestans) was 100% each time. Further, in the assay on Pythium graminicola, the pest or weed control at 1000 ppm is at least 90%.
In the case of `O=C(Cn1nc(C(F)F)cc1C(F)F)N1CCC(c2nc(C3OCc4cccc(Br)c4CO3)cs2)CC1` (centres unmarked) [Compound 1-113, 4-[4-(6-bromo-1,5-dihydro-3H-2,4-benzodioxepin-3-yl)-2-thiazolyl]-1-[2-[3,5-bis(difluoromethyl)-1H-pyrazole-1-yl]acetyl]piperidine], the pest or weed control at 4 µg/mL (in assay [1]; in the assay on Plasmopara viticola; in the assay on Phytophthora infestans) was 100% each time. This molecule also yielded a pest or weed control at 1000 ppm in the assay with Pythium graminicola of at least 90%.
On to `COc1ccc(F)c2c1COC(c1csc(C3CCN(C(=O)Cn4nc(C(F)(F)F)cc4C)CC3)n1)OC2` (centres unmarked) [Compound 1-133, 4-[4-(6-fluoro-9-methoxy-1,5-dihydro-3H-2,4-benzodioxepin-3-yl)-2-thiazolyl]-1-[2-[5-methyl-3-(trifluoromethyl)-1H-pyrazole-1-yl]acetyl]piperidine], for which the pest or weed control at 4 µg/mL (in assay [1]; in the assay with Plasmopara viticola; in the assay on Phytophthora infestans) was 100% throughout. Further, the pest or weed control at 1000 ppm in the assay on Pythium graminicola is at least 90%.
In the case of `COc1cccc2c1COC(c1csc(C3CCN(C(=O)Cn4nc(C(F)(F)F)cc4C(F)(F)F)CC3)n1)OC2` (centres unmarked) [Compound 1-140, 4-[4-(6-methoxy-1,5-dihydro-3H-2,4-benzodioxepin-3-yl)-2-thiazolyl]-1-[2-[3,5-bis(trifluoromethyl)-1H-pyrazole-1-yl]acetyl]piperidine], the pest or weed control at 4 µg/mL (in assay [1]; in the assay on Plasmopara viticola; in the assay on Phytophthora infestans) was 100% each time. This molecule returned a pest or weed control at 1000 ppm in the assay with Pythium graminicola of at least 90%.
Take `CC(=O)Oc1cccc2c1COC(c1csc(C3CCN(C(=O)Cn4nc(C(F)(F)F)cc4C)CC3)n1)OC2` (centres unmarked) [Compound 1-144, 4-[4-(6-acetoxy-1,5-dihydro-3H-2,4-benzodioxepin-3-yl)-2-thiazolyl]-1-[2-[5-methyl-3-(trifluoromethyl)-1H-pyrazole-1-yl]acetyl]piperidine]: the pest or weed control at 4 µg/mL (in assay [1]; in the assay with Plasmopara viticola; with Phytophthora infestans) was 100% each time. The pest or weed control at 1000 ppm with Pythium graminicola was at least 90%.
On to `CS(=O)(=O)Oc1ccc(F)c2c1COC(c1csc(C3CCN(C(=S)Cn4nc(C(F)F)cc4C(F)F)CC3)n1)OC2` (centres unmarked) [Compound 1-158, 4-[4-(6-fluoro-9-methylsulfonyloxy-1,5-dihydro-3H-2,4-benzodioxepin-3-yl)-2-thiazolyl]-1-[2-[3,5-bis(difluoromethyl)-1H-pyrazole-1-yl]thioacetyl]piperidine], for which the pest or weed control at 4 µg/mL (in assay [1]; in the assay with Plasmopara viticola; in the assay on Phytophthora infestans) was 100% in each case. In the assay with Pythium graminicola, the pest or weed control at 1000 ppm was at least 90%.
With `Cc1ccc(C)c(CC(=O)N2CCC(c3nc(C4OCc5cccc(OS(C)(=O)=O)c5CO4)cs3)CC2)c1` (centres unmarked) [Compound 2-1, 4-[4-(6-methylsulfonyloxy-1,5-dihydro-3H-2,4-benzodioxepin-3-yl)-2-thiazolyl]-1-[2-(2,5-dimethylphenyl)acetyl]piperidine], the pest or weed control at 4 µg/mL (in assay [1]; in the assay with Plasmopara viticola; with Phytophthora infestans) was 100% each time. The molecule further registered a pest or weed control at 1000 ppm with Pythium graminicola of at least 90%.
Turning to `CS(=O)(=O)Oc1cccc2c1COC(c1csc(C3CCN(C(=O)Cc4cc(Cl)ccc4Cl)CC3)n1)OC2` (centres unmarked) [Compound 2-2, 4-[4-(6-methylsulfonyloxy-1,5-dihydro-3H-2,4-benzodioxepin-3-yl)-2-thiazolyl]-1-[2-(2,5-dichlorophenyl)acetyl]piperidine], the pest or weed control at 4 µg/mL (in assay [1]; with Plasmopara viticola; with Phytophthora infestans) was 100% each time. In addition, in the assay with Pythium graminicola, the pest or weed control at 1000 ppm was at least 90%.
Regarding `O=C(Cc1cc(Cl)ccc1Cl)N1CCC(c2nc(C3OCc4c(F)ccc(F)c4CO3)cs2)CC1` [Compound 2-4, 4-[4-(6,9-difluoro-1,5-dihydro-3H-2,4-benzodioxepin-3-yl)-2-thiazolyl]-1-[2-(2,5-dichlorophenyl)acetyl]piperidine], the pest or weed control at 4 µg/mL (in assay [1]; with Plasmopara viticola; with Phytophthora infestans) was 100% in each case. This molecule came in with a pest or weed control at 1000 ppm in the assay on Pythium graminicola of at least 90%.
`Cc1ccc(C)c(NC(=O)N2CCC(c3nc(C4OCc5cccc(OS(C)(=O)=O)c5CO4)cs3)CC2)c1` (centres unmarked) [Compound 2-5, 4-[4-(6-methylsulfonyloxy-1,5-dihydro-3H-2,4-benzodioxepin-3-yl)-2-thiazolyl]-1-[N-(2,5-dimethylphenyl)carbamoyl]piperidine]: the pest or weed control at 4 µg/mL (in assay [1]; in the assay with Plasmopara viticola; with Phytophthora infestans) was 100% in each case. The pest or weed control at 1000 ppm with Pythium graminicola was at least 90%.
In the case of `Cc1ccc(C)c(CC(=O)N2CCC(c3nc(C4OCc5cccc(F)c5CO4)cs3)CC2)c1` (centres unmarked) [Compound 2-7, 4-[4-(6-fluoro-1,5-dihydro-3H-2,4-benzodioxepin-3-yl)-2-thiazolyl]-1-[2-(2,5-dimethylphenyl)acetyl]piperidine], the pest or weed control at 4 µg/mL (in assay [1]; in the assay on Plasmopara viticola; in the assay with Phytophthora infestans) was 100% in each case. Moreover, in the assay with Pythium graminicola, the pest or weed control at 1000 ppm is at least 90%.
On to `Cc1ccc(C)c(CC(=O)N2CCC(c3nc(C4OCc5ccc(F)cc5CO4)cs3)CC2)c1` (centres unmarked) [Compound 2-10, 4-[4-(7-fluoro-1,5-dihydro-3H-2,4-benzodioxepin-3-yl)-2-thiazolyl]-1-[2-(2,5-dimethylphenyl)acetyl]piperidine], for which the values for the pest or weed control at 4 µg/mL (in assay [1]; in the assay on Plasmopara viticola; in the assay with Phytophthora infestans) were 100%, 100% and 80%, respectively. Further, in the assay on Pythium graminicola, the pest or weed control at 1000 ppm is at least 90%.
